Consider 1 compound from US9891156B2, “Method for determining the permeation of a permeant through a membrane” (Paraytec Limited, priority 2014, dated 2018).

This series can be described thus: Rapid in vitro release testing of ibuprofen gel by UV/VIS area imaging. The class given is in vitro ADME. As to conditions: calculated comparison value; extinction coefficient 1.5 dm^3 g^−1 cm^−1.

Excerpt: Measurements were made by switching the LED source of UV irradiation 51 and the LED source of VIS irradiation 52 and imaging at a frame rate of 2 Hz. […] Imaging is typically carried out alternately at a first wavelength where the API absorbs light (280 or 255 nm) and a second wavelength where there is no absorption (505 nm). […] The sample assembly 20 further comprises a fused silica elongate cuvette 22 which is cuboidal and open at the upper end with a width of 7 mm, a depth of 4 mm and a wall thickness of 1 mm. […] The fused silica elongate cuvette 22 is inserted vertically inside the elongate receptor cell 24 and is capped at a lower end with a membrane 21 which is glued in place. […] The sample assembly 20 further comprises an elongate substantially planar holder 30 for the API formulation 13 (the donor phase) which is slidably inserted in the fused silica elongate cuvette 22. The elongate substantially planar holder 30 projects beyond an upper end 22a of the fused silica elongate cuvette 22 to facilitate removal. […] The vertical bar (z direction) was used for measurement of the absorbance profiles spanning the donor phase, the membrane and the receptor phase (see FIGS. 3B to D).

For `CC(C)Cc1ccc(C(C)C(=O)O)cc1` (stereo not shown) [ibuprofen], the “Depletion value of the donor phase calculated from path length, ibuprofen concentration in the gel and literature extinction coefficient” value is given as −1.5 AU.
